Results taken from publication PMC10823399 (Journal of medicinal chemistry, 2015).

How the values were obtained:
[1] = biological target: T1, D2R (Homo sapiens, UniProt P14416); assay: [35S]GTPγS binding assay, interaction with dopamine; type: biochemical; settings: composite cooperativity with dopamine
[2] = biological target: T2, D2LR (Homo sapiens, UniProt P14416); assay: ERK1/2 phosphorylation assay, interaction with dopamine; type: cell-based; settings: for Kb: operational model of allosterism (Equation 5); for activity at the D2R in words: effect on dopamine concentration-response, highest concentration 300 μM
[3] = biological target: T2, D2LR; assay: BRET cAMP assay; type: cell-based
[4] = biological target: T1, D2R; assay: [3H]spiperone binding assay
[5] = biological target: Val91^2.61Ala D2R (Homo sapiens, UniProt P14416, V91A); assay: ERK1/2 phosphorylation assay at mutant D2R; type: cell-based
[6] = biological target: Glu95^2.65Ala D2R (Homo sapiens, UniProt P14416, E95A); assay: ERK1/2 phosphorylation assay at mutant D2R; type: cell-based
[7] = biological target: T1, D2R; assay: Interaction of bitopic ligand 36 with dopamine at the D2R
[8] = WT D2R, binding cooperativity with dopamine
[9] = Table 3, binding cooperativity with dopamine
[10] = Table 4, binding cooperativity with dopamine

Chain of Glu95^2.65Ala D2R (P14416 whole entry E95A): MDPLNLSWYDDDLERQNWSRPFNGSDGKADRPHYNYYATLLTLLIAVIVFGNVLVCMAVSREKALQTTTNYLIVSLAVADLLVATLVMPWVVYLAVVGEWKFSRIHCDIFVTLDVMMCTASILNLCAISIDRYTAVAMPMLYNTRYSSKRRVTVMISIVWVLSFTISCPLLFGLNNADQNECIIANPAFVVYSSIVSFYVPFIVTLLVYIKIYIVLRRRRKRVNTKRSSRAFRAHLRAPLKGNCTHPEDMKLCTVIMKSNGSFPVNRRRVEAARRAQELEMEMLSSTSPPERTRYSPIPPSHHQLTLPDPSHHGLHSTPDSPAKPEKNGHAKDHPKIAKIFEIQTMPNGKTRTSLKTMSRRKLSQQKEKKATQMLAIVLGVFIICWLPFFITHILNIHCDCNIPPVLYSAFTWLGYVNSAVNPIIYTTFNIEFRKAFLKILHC
T1 sequence (P14416 whole entry): as the sequence (P14416 whole entry E95A) above, with A95E counted along it
T2 sequence (P14416 whole entry): as the sequence (P14416 whole entry E95A) above, with A95E counted along it
Chain of Val91^2.61Ala D2R (P14416 whole entry V91A): as the sequence (P14416 whole entry E95A) above, with V91A, A95E counted along it

CN(C)CC[C@H]1CC[C@H](NC(=O)c2cc3ccccc3[nH]2)CC1.Cl [Compound 9a, N-((trans)-4-(2-(Dimethylamino)ethyl)cyclohexyl)-1H-indole-2-carboxamide hydrochloride]
Logαβ [1]: −0.84 ± 0.15 | αβ ([1]; <1 negative): 0.14 | Kb ([2]; KB, WT D2R): 3000 nM | Logα [2, 8]: −0.61 ± 0.14 | α [2, 8]: 0.25 | Logβ ([2]; WT D2R, modulation of dopamine efficacy, fixed to −100 in the fit): −100 | Kb ([2]; pKB, WT D2R): 2880 nM

CCCN(CCC)CC[C@H]1CC[C@H](NC(=O)c2cc3ccccc3[nH]2)CC1 [Compound 9b, N-((trans)-4-(2-(Dipropylamino)ethyl)cyclohexyl)-1H-indole-2-carboxamide]
mode of action in words [3]: competitive partial agonist | mode of action in words ([2]; pERK1/2 assay): partial agonist | Ki [4]: 20000 nM

NC(=O)c1cc2ccccc2[nH]1 [Compound 11a, 1H-Indole-2-carboxamide]
activity at the D2R in words [2]: does not exhibit receptor binding

CCNC(=O)c1cc2ccccc2[nH]1 [Compound 11b, N-Ethyl-1H-indole-2-carboxamide]
Logα [2, 9]: −0.35 ± 0.21

CCCNC(=O)c1cc2ccccc2[nH]1 [Compound 11c, N-Propyl-1H-indole-2-carboxamide]
Logα [2, 9]: −0.60 ± 0.09

CCCCNC(=O)c1cc2ccccc2[nH]1 [Compound 11d, N-Butyl-1H-indole-2-carboxamide]
increase in affinity compared to 3 [2]: 7 fold | increase in negative cooperativity compared to 3 [2]: 10 fold | Logα [2, 9]: −1.63 ± 0.11 | Logα ([2]; Table 5, Wild Type): −1.63 ± 0.11 | α ([2]; Table 5, Wild Type): 0.02 | Logβ ([2]; Table 5, Wild Type, constrained): −100 | decrease in affinity caused by mutation ([5]; Val91^2.61Ala vs WT): 14 fold | Logα ([6]; Table 5, Glu95^2.65Ala): −1.24 ± 0.17 | α ([6]; Table 5, Glu95^2.65Ala): 0.05 | Logβ ([6]; Table 5, Glu95^2.65Ala, no modulation of dopamine efficacy): 0

C=CCNC(=O)c1cc2ccccc2[nH]1 [Compound 11e, N-Allyl-1H-indole-2-carboxamide]
Logα [2, 9]: −0.26 ±0.06

O=C(NCCO)c1cc2ccccc2[nH]1 [Compound 11f, N-(2-Hydroxyethyl)-1H-indole-2-carboxamide]
activity at the D2R in words [2]: inactivity

CC(C)(C)NC(=O)c1cc2ccccc2[nH]1 [Compound 11h, N-(tert-Butyl)-1H-indole-2-carboxamide]
Logα [2, 9]: −0.58 ± 0.13

CC(C)N(C(=O)c1cc2ccccc2[nH]1)C(C)C [Compound 11j, N,N-Diisopropyl-1H-indole-2-carboxamide]
Logα [2, 9]: −1.39 ± 0.11

O=C(NC1CCC1)c1cc2ccccc2[nH]1 [Compound 11p, N-Cyclobutyl-1H-indole-2-carboxamide]
Logα [2, 9]: −1.77 ± 0.27

O=C(NC1CCCC1)c1cc2ccccc2[nH]1 [Compound 11q, N-Cyclopentyl-1H-indole-2-carboxamide]
Logα [2, 9]: −0.63 ± 0.11

O=C(NC1CCCCC1)c1cc2ccccc2[nH]1 [Compound 11r, N-Cyclohexyl-1H-indole-2-carboxamide]
activity at the D2R in words [2]: no determinable activity

O=C(NN1CCCCC1)c1cc2ccccc2[nH]1 [Compound 11s, N-(Piperidin-1-yl)-1H-indole-2-carboxamide]
Logα [2, 9]: −0.53 ± 0.13

CC(C)NC(=O)c1[nH]c2ccccc2c1F [Compound 13a, 3-Fluoro-N-isopropyl-1H-indole-2-carboxamide]
Logα [2, 9]: −0.72 ± 0.35 | α [2, 9]: 0.19

CC(C)NC(=O)c1cc2c(F)cccc2[nH]1 [Compound 13b, 4-Fluoro-N-isopropyl-1H-indole-2-carboxamide]
Logα [2, 9]: −1.14 ± 0.10

CC(C)NC(=O)c1cc2cccc(F)c2[nH]1 [Compound 13e, 7-Fluoro-N-isopropyl-1H-indole-2-carboxamide]
Logα [2, 9]: −0.96 ± 0.12

CC(C)NC(=O)c1cc2ccccc2n1C [Compound 17, N-Isopropyl-1-methyl-1H-indole-2-carboxamide]
activity at the D2R in words [2]: did not show activity

CC(C)NC(=O)c1nc2ccccc2[nH]1 [Compound 19, N-Isopropyl-1H-benzo[d]imidazole-2-carboxamide]
Logα [2, 10]: −1.07 ± 0.22

CC(C)NC(=O)c1nc2ccccc2o1 [Compound 21, N-Isopropylbenzo[d]oxazole-2-carboxamide]
activity at the D2R in words [2]: did not show activity

CC(C)NC(=O)c1csc2ccccc12 [Compound 25b, N-Isopropylbenzo[b]thiophene-3-carboxamide]
activity at the D2R in words [2]: did not show activity

CC(C)NC(=O)c1cc2cccnc2[nH]1 [Compound 27, N-Isopropyl-1H-pyrrolo[2,3-b]pyridine-2-carboxamide]
activity at the D2R in words [2]: lack of activity

CC(C)NC(=O)c1cccc2[nH]ccc12 [Compound 30a, N-Isopropyl-1H-indole-4-carboxamide]
activity at the D2R in words [2]: devoid of detectable activity

CC(C)NC(=O)c1ccc2[nH]ccc2c1 [Compound 30b, N-Isopropyl-1H-indole-5-carboxamide]
Logα [2, 10]: −1.27 ± 0.3

CC(C)NC(=O)c1ccc2cc[nH]c2c1 [Compound 30c, N-Isopropyl-1H-indole-6-carboxamide]
Logα [2, 10]: −1.1 ± 0.3

CC(C)NC(=O)c1cccc2cc[nH]c12 [Compound 30d, N-Isopropyl-1H-indole-7-carboxamide]
activity at the D2R in words [2]: devoid of detectable activity

N#Cc1ccc2c(c1)CN(CCCCNC(=O)c1cc3ccccc3[nH]1)CC2 [Compound 36, N-(4-(7-Cyano-3,4-dihydroisoquinolin-2(1H)-yl)butyl)-1H-indole-2-carboxamide]
Kb [7]: 81.3 nM | increase in affinity as compared to 1 [7]: 10 fold | Logαβ ([7]; Figure 7, negative cooperativity with dopamine): −1.32 ± 0.09

NCCc1ccc(O)c(O)c1 [dopamine, reference compound]
LogτA ([2]; WT D2R expressing cell line): 0.74 ± 0.07 | LogτA ([5]; V91A D2R expressing cell line): 0.65 ± 0.19 | LogτA ([6]; E95A D2R expressing cell line): 0.71 ± 0.24
